Measurements taken from patent US10759994B2, “Luminogenic transition metal-based pyridyl complex and its use” (City University of Hong Kong, priority 2016, dated 2020).

Tests used:
HeLa cells = assay type: cell-based; conditions: BCN-C10 pretreatment (200 μM, 1 h), complex 40 μM
Source text: The results particularly highlight the potential of the luminogenic transition metal-based polypyridyl complexes of the present invention for bioorthogonal labeling. […] Importantly, although the cellular uptake of complex 2b was substantially higher, it was much less cytotoxic than complex 4b toward the pretreated cells. […] The results also highlight the potential therapeutic use of intracellular bioorthogonal coupling reactions in activating the cytotoxicity of metallo drugs.
For determining the cytotoxicity of complexes 1 b 5b, HeLa cells were seeded in a 96-well flat-bottomed microplate (about 10,000 cells well^−1) in growth medium (100 μL) and incubated at 37° C. under a 5% CO2 atmosphere for 24 h. The cells were then incubated in either blank medium or growth medium/DMSO (99:1, v/v) (100 μL) containing BCN-C10 (200 μM) in the dark at 37° C. under a 5% CO2 atmosphere for 1 h. The medium was then removed, the cell layer was washed with PBS, and further incubated in growth medium/DMSO (99:1, v/v) (100 μL) containing the ruthenium(II) complexes (40 μM) in the dark at 37° C. under a 5% CO2 atmosphere for 6, 12, or 24 h. Wells containing untreated cells were used as blank control. The microplate was incubated at 37° C. under a 5% CO2 atmosphere for another 4 h. The growth medium was then removed, and DMSO (200 μL) was added to each well. The microplate was further incubated for 15 min. The absorbance of the solutions at 570 nm was measured with a SPECTRAmax 340 microplate reader.

[1] = aerated aqueous solution, λex=455 nm; cited from earlier work
[2] = SPANC reaction kinetics with BCN—OH by UV/Vis absorption spectroscopy; assay type: physicochemical; conditions: reaction with BCN—OH in MeOH at 298 K
Method: The reactivity of the iridium(III) and ruthenium(II) pyridyl complexes toward a strained alkyne derivative BCN—OH in MeOH at 298 K was studied. The second-order rate constants (k2) of the strain-promoted alkyne-nitrone cycloaddition (SPANC) reaction of complexes 1a-5b are shown in Tables 3 and 4, respectively. The k2 values of the iridium(III) complexes 1a, 2a and 3a and the ruthenium(II) complexes 1b, 2b, 3b, 4b, and 5b were determined to be 0.116-0.238 and 0.078-3.06 M^−1 s^−1, respectively, which are about 1.95-76.5 times that of the free ligand bpy-nitrone-Me (k2=0.040 M^−1 s^−1). This is attributed to the electron-withdrawing effects of the positively-charged metal centers. […] The accelerated reaction kinetics is assumed to originate from the presence of the more electron-withdrawing phenyl ring at the N-position of the nitrone moiety. Thus, the accelerated reaction kinetics render complexes 1a-5b highly advantageous bioorthogonal probes for biomolecules modified with a strained alkyne moiety.
More specifically, the SPANC reaction kinetics of complexes 1a 5b was studied by UV/Ms absorption spectroscopy. For the ligand bpy-nitrone-Me and the iridium(III) complexes 1a-3a, the k2 values were measured under pseudo first order conditions with a 25- to 100-fold excess of BCN—OH in MeOH at 298 K. The reaction process was followed by monitoring the exponential decay of the absorbance at 306-342 nm upon addition of BCN—OH. The final concentrations of the nitrone compounds were 10 μM and those of BCN—OH ranged from 0.25 to 1.0 mM. For the ruthenium(II) complexes 1b-5b, the k2 values were determined under pseudo first order conditions with a 50- to 200-fold excess of BCN—OH in MeOH at 298 K. The reaction process was monitored by following the exponential decay of the absorbance at 329 nm. The final concentrations of the complexes were 10 μM and those of BCN—OH ranged from 0.5 to 2.0 mM. The data were fitted to a single-exponential equation to give the observed rate constants (kobs), which were plotted against the concentrations of BCN—OH to obtain the k2 from the slope of the plots.

Cc1ccnc(-c2cc(/C=[N+](/C)[O-])ccn2)c1.F[P-](F)(F)(F)(F)F.F[P-](F)(F)(F)(F)F.[Ru+2].c1ccc(-c2ccccn2)nc1.c1ccc(-c2ccccn2)nc1 [Complex 1b, [Ru(bpy)2(bpy-nitrone-Me)](PF6)2]
Cell viability with BCN-C10 pretreatment (HeLa cells): maintained good biocompatibility

[Cl][Ru][Cl].c1ccc(-c2ccccn2)nc1.c1ccc(-c2ccccn2)nc1.c1ccc(-c2ccccn2)nc1 [[Ru(bpy)3]Cl2]
ϕem of standard solution [1]: 0.028

Cc1ccnc(-c2cc(C=[N+](C)[O-])ccn2)c1 [bpy-nitrone-Me, 4-((Methyl(oxido)imino)methyl)-4′-methyl-2,2′-bipyridine]
Second-order rate constants (k2) [2]: 0.040 M⁻¹ s⁻¹
